Laboratory results taken from patent publication US11641858B2, “Agricultural chemicals” (Redag Crop Protection Ltd, priority 2016, dated 2023).

What was measured:
Phytophthora cinnamomi = assay: Amended agar assay (potato dextrose agar), reduction in colony growth; type: cell-based; conditions: descending test concentrations, 5-fold dilutions typically down to 0.032 ppm, read-out: Phytophthora cinnamomi (EC50)
Method: (§1) Testing was carried out on potato dextrose agar (PDA) amended with each compound at test concentrations of 20, 4 and 0.8, 0.16 and 0.032 ppm. Amended agar at each test concentration was poured into three replicate 9 cm petri dishes. Each replicate dish was inoculated in the centre with a 5 mm agar plug taken from the leading edge of a culture aged between 2 and 7 days old; the age of the culture was dependant on the growth rate of the pathogen being tested. The test pathogens were Pythium ultimum and Phytophthora cinnamomi. Plates were incubated at 18° C. and the diameter of each colony measured before growth on the fastest growing plate reached the plate edge. This varied between 2 and 7 days depending on the growth rate of test pathogens. The % reduction in colony growth compared to the control was calculated for each test concentration and pathogen combination.
(§2) The results are shown in Table 1 in which * represents an average control of up to 50% at said dosage; ** represents an average control of 50% or greater but less than 80% at said dosage; and *** represents an average control of 80% or greater at said dosage.
(§3) A primary screen was also conducted for a number of other compounds of the invention. The screen was conducted at 20 ppm and the results are provided in Table 2, in which D represents no control detected at this concentration; C represents up to 50% control; B from 50 to 99% control; and A represents a control of greater than 99%.
(§4) Alternatively, or in addition, the same assay was conducted at descending test concentrations with 5-fold dilutions typically down to 0.032 ppm, and an EC50 (the concentration at which 50% control would be achieved) was determined. The results are provided in Table 1 in which G represents an EC50 above 20 ppm, F represents an EC50 of 2-20 ppm and E represents and EC50 less than 2 ppm.

Pythium ultimum = assay: as above; type: cell-based; conditions: Globisporangium ultimum; descending test concentrations, 5-fold dilutions typically down to 0.032 ppm; read-out: Pythium ultimum (EC50)
Method: as §1, §2, §3, §4

EC50 (Phytophthora cinnamomi) | EC50 (Pythium ultimum) | SMILES
< 2 µg/mL | < 2 µg/mL | Cn1nnnc1-n1c(OCc2cccc(NC(=O)CCC3CCCC3)n2)nc2ccccc21 [Example 26]
< 2 µg/mL | < 2 µg/mL | Cn1nnnc1-n1c(OCc2cccc(NC(=O)c3ccccc3)n2)nc2ccccc21 [Example 27]
< 2 µg/mL | < 2 µg/mL | CCC(=O)Nc1cccc(COc2nc3ccccc3n2-c2nnnn2C)n1 [Example 28]
< 2 µg/mL | < 2 µg/mL | Cn1nnnc1-n1c(OCc2cccc(NC(=O)Cc3ccccc3)n2)nc2ccccc21 [Example 29]
< 2 µg/mL | < 2 µg/mL | CCCC(=O)Nc1cccc(COc2nc3ccccc3n2-c2nnnn2C)n1 [Example 30]
< 2 µg/mL | < 2 µg/mL | CCCCC(=O)Nc1cccc(COc2nc3ccccc3n2-c2nnnn2C)n1 [Example 31]
< 2 µg/mL | < 2 µg/mL | Cn1nnnc1-n1c(OCc2cccc(NC(=O)C3CC3)n2)nc2ccccc21 [Example 32]
2 to 20 µg/mL | 2 to 20 µg/mL | COCC(=O)Nc1cccc(COc2nc3ccccc3n2-c2nnnn2C)n1 [Example 33]
< 2 µg/mL | < 2 µg/mL | COc1ccc(C(=O)Nc2cccc(COc3nc4ccccc4n3-c3nnnn3C)n2)cc1 [Example 34]
< 2 µg/mL | < 2 µg/mL | Cn1nnnc1-n1c(OCc2cccc(NC(=O)C3CCCCC3)n2)nc2ccccc21 [Example 35]
< 2 µg/mL | < 2 µg/mL | CCC(CC)C(=O)Nc1cccc(COc2nc3ccccc3n2-c2nnnn2C)n1 [Example 36]
< 2 µg/mL | < 2 µg/mL | Cn1nnnc1-n1c(OCc2cccc(NC(=O)c3ccccn3)n2)nc2ccccc21 [Example 37, N-(6-(((1-(1-methyl-1H-tetrazol-5-yl)-1H-benzo[d]imidazol-2-yl)oxy)methyl)pyridin-2-yl)picolinamide]
< 2 µg/mL | < 2 µg/mL | Cn1nnnc1-n1c(OCc2cccc(NC(=O)Cc3ccccn3)n2)nc2ccccc21 [Example 38]
< 2 µg/mL | < 2 µg/mL | CSCC(=O)Nc1cccc(COc2nc3ccccc3n2-c2nnnn2C)n1 [Example 39, N-(6-(((1-(1-methyl-1H-tetrazol-5-yl)-1H-benzo[d]imidazol-2-yl)oxy)methyl)pyridin-2-yl)-2-(methylthio)acetamide]
< 2 µg/mL | < 2 µg/mL | Cn1nnnc1-n1c(OCc2cccc(NC(=O)CC3CC3)n2)nc2ccccc21 [Example 40]
< 2 µg/mL | < 2 µg/mL | CSCCC(=O)Nc1cccc(COc2nc3ccccc3n2-c2nnnn2C)n1 [Example 41]
< 2 µg/mL | < 2 µg/mL | COCCC(=O)Nc1cccc(COc2nc3ccccc3n2-c2nnnn2C)n1 [Example 42]
< 2 µg/mL | < 2 µg/mL | Cn1nnnc1-n1c(OCc2cccc(NC(=O)c3ccc(C#N)cc3)n2)nc2ccccc21 [Example 43]
< 2 µg/mL | < 2 µg/mL | Cn1nnnc1-n1c(OCc2cccc(NC(=O)CC(C)(C)C)n2)nc2ccccc21 [Example 44]
< 2 µg/mL | < 2 µg/mL | Cn1nnnc1-n1c(OCc2cccc(NC(=O)CCC(C)(C)C)n2)nc2ccccc21 [Example 45]
< 2 µg/mL | < 2 µg/mL | Cn1nnnc1-n1c(OCc2cccc(NC(=O)CC3CCCCC3)n2)nc2ccccc21 [Example 46]
< 2 µg/mL | < 2 µg/mL | Cn1nnnc1-n1c(OCc2cccc(NC(=O)CCC3CCCCC3)n2)nc2ccccc21 [Example 47]
> 20 µg/mL | > 20 µg/mL | C#CCC(=O)Nc1cccc(COc2nc3ccccc3n2-c2nnnn2C)n1 [Example 48]
< 2 µg/mL | < 2 µg/mL | CC(C)CCC(=O)Nc1cccc(COc2nc3ccccc3n2-c2nnnn2C)n1 [Example 49]
< 2 µg/mL | < 2 µg/mL | C=CCC(=O)Nc1cccc(COc2nc3ccccc3n2-c2nnnn2C)n1 [Example 50]
< 2 µg/mL | < 2 µg/mL | CCC(C)C(=O)Nc1cccc(COc2nc3ccccc3n2-c2nnnn2C)n1 (stereo not shown) [Example 51]
